The text below walks through data of patent US7098232B1, “Treatment and prevention of gastrointestinal disease using antagonists of partial agonists of 5HT1a receptors” (Athpharma Limited, priority 1999, dated 2006).

Assay [1] relates to patients suffering from non-ulcerative dyspepsia. As to the kind of experiment: Clinical study of pindolol in non-ulcerative dyspepsia (GSRS scores). The class given is in vivo, humans. The note with it: 2.5 mg three times daily. The procedure: The invention is intended for the treatment of mammals, including humans.
Eleven patients suffering from non-ulcerative dyspepsia were recruited to a clinical study and gave informed consent. All were treated with pindolol 2.5 mg three times daily. […] A further patient improved in the second week. Their responses were quantified using a standard rating scale (GSRS scores).

The target of a further assay is T1, 5HT1a receptor (Homo sapiens, UniProt P08908).
T1 construct: Buspirone (30mg) or, matching placebo was administered orally; from tissue; host or cells: living human subjects (central receptors)
T1 sequence (P08908 1-422): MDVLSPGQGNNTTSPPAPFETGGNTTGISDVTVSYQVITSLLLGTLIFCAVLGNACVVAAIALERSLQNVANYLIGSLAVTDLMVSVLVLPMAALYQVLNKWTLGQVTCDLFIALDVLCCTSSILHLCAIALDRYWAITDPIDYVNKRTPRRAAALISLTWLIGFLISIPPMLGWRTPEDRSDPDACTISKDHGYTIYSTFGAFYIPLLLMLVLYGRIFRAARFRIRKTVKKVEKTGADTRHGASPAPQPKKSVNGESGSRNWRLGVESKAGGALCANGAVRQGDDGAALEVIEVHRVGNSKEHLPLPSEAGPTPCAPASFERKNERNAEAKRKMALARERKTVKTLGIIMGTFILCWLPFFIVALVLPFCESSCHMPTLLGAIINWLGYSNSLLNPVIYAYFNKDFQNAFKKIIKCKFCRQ
The experiment in a line: Buspirone challenge, prolactin release. The class given is in vivo. The note with it: buspirone 30 mg orally; for Prolactin AUC (mean±SD): blood 0-180 min. The text has this:
Studies indicate that a central 5HT1a receptor hypersensitivity may be involved in the pathophysiology of NUD (13,14). The release of prolactin from the anterior pituitary is under dopamine inhibition and under 5HT stimulation, probably at the level of the hypothalamus (15).
A total of 109 subjects, 50 NUD patients (39 female/11 male) and 59 healthy comparison subjects ([…]) gave fully informed consent to take part in the study, which had Ethics Committee approval. […] Buspirone (30mg) or, matching placebo was administered orally at 0900 h (Time 0). Blood was taken at 0, 30, 60, 90, 120 and 180 min.

A further assay has as its system gastric emptying. As to conditions: intracerebroventricular injection, animal studies; cited from earlier work.

Turning to `CC(C)NCC(O)COc1cccc2[nH]ccc12` (racemic) [pindolol], the “Mean GSRS Score” value in assay [1] (Week 0 (baseline), average of 11 patients) is 9; in assay [1] (Week 1, average of 11 patients), 4.2; in assay [1] (Week 2, average of 11 patients) it was 3.5; in assay [1] (Week 3, average of 11 patients), 2.9. Also, the “Reduction in average symptom severity” value in assay [1] (in three weeks) was “approximately 68%”. Also, in assay [1] (within 1 week of commencing treatment), the “Patients with significant improvement in symptoms” value was “Seven of the 11”.

`O=C1CC2(CCCC2)CC(=O)N1CCCCN1CCN(c2ncccn2)CC1` [Buspirone]: the “Prolactin AUC (mean±SD)” value was determined as 46±35 on 5HT1a receptor (NUD patients) and 24±35 on 5HT1a receptor (healthy subjects). Also, the “Prolactin levels after challenge” value at 5HT1a receptor (all subjects) is given as “rose in all subjects”.

For `CCNC(C)Cc1cccc(C(F)(F)F)c1` (stereo not shown) [fenfluramine], the “Effect on gastric emptying” value with gastric emptying is “inhibits gastric emptying”.
